In data set [1] the target is T1, JAK1 (Homo sapiens, UniProt P23458).
T1 construct: purchased Carna Biosciences
Put plainly: JAK biochemical microfluidic assay (Caliper EZ Reader), JAK1. The conditions noted are these: 1 mM ATP; head prints (5 nM). As to the method:
(§1) JAK activity was determined in the reaction buffer 50 mM HEPES, 0.01% Brij35, 10 mM MgCl2, 2 mM DTT by a microfluidic assay. The phosphorylation of a FAM labeled peptide substrate was monitored in the Caliper EZ Reader II (Perkin Elmer). The assay condition for each batch of enzyme (Carna Biosciences) was optimized to obtain 10% conversion rate of peptide substrate.
(§2) The test compounds were dissolved in DMSO to a stock concentration of 10 mM. Three-fold serially diluted compounds with top concentration of 5 μM were pre-incubated with JAK1, JAK2 or TYK2 for 10 min at ambient temperature. The final DMSO concentration of assay mixture was 1%. […] The reaction was stopped by adding 50 mM EDTA.
(§3) The percent inhibition was calculated by the following formula. % Inhibition=(Conversionmax−Conversionsample)/(Conversionmax−Conversionmin)*100 Conversionmax means the conversion rate in the positive well without addition of compound • […] means the conversion rate in the well without addition of enzyme • Conversionsample means the conversion rate of test compounds
(§4) The dose-response (percent inhibition) curve was plotted and IC50 values were determined by GraphPad software.

Data set [2] has as its target T2, JAK2 (Homo sapiens, UniProt O60674).
T2 construct: purchased Carna Biosciences
The data set is described as follows: JAK biochemical microfluidic assay (Caliper EZ Reader), JAK2. The conditions noted are these: 1 mM ATP; head prints (0.25 nM). On the procedure: as §1, §2, §3, §4

Data set [3] deals with T3, TYK2 (Homo sapiens, UniProt P29597).
T3 construct: purchased Carna Biosciences
Put plainly: JAK biochemical microfluidic assay (Caliper EZ Reader), TYK2. The conditions noted are these: 1 mM ATP; head prints (2.5 nM). As to the method:
as §1, §2, §3, §4

The subject of data set [4] is BaF3-TEL-JAK1. The data set is described as follows: Anti-proliferative assay, BaF3-TEL-JAK1 cells. It is filed as cell-based. The conditions noted are these: 72 h, Cell-Titer Glo. On the procedure: (§5) Dimerization domain of Tel protein fused with JAK kinase domain was permanently transduced into BaF3 cells, whose proliferation is dependent on JAK activity in the absence of IL-3 induction. These engineered BaF3-Tel-JAK cells were used to monitor JAK inhibitory activities of the compounds in the cellular.
(§6) BaF3-Tel-JAK cells were cultured in RPMI-1640 (Corning) containing 10% fetal bovine serum. Cells were seeded at 2000/well of white flat bottom 96-well plates. The well containing medium only was used as background control. After 24h growth, cells were treated with compounds. The test compounds were dissolved in DMSO to a stock concentration of 10 mM. 3-fold serially diluted compounds for 9 concentrations with top concentration of 10 μM was added into the each well. The final DMSO concentration was 0.2%. The cells continued to grow at 37° C. in 5% CO2 for 72 h after compound treatment. The viability was measured by cellular ATP determination using the Cell-Titer Glo luciferase reagent (Promega). The Luminescence value was recorded by a multi-label reader Envision (PerkinElmer). Values were transformed to percent inhibition using the following formula. % Inhibition=(Readoutmax−Readoutsample)/(Readoutmax−Readoutmin)*100
(§7) The well without compound but with equivalent DMSO was defined as Readout max
(§8) The well with only medium and equivalent DMSO was defined as Readout min
(§9) The dose-response (percent inhibition) curve was plotted and GI50 values (the concentration that causes 50% growth inhibition) were determined by GraphPad software.

Data set [5] has as its system BaF3-TEL-JAK2. Put plainly: Anti-proliferative assay, BaF3-TEL-JAK2 cells. It is filed as cell-based. The conditions noted are these: 72 h, Cell-Titer Glo. As to the method:
as §5, §6, §7, §8, §9

Data set [6] in a line: Human liver microsome stability study. Format: in vitro ADME. The conditions noted are these: liver microsomes, pH 7.4, 0.5 mg/mL microsomal protein, 1 μM test article; for microsomal CLint at 1 μM: read-out: HLM Clint; for half-life at 1 μM: read-out: HLM T½. As to the method:
Commercially available human liver microsome (vendor: Corning) were used for study the Phase I stability of test articles.
Microsomes were pre-incubated with test compound or control compounds for 10 min at 37° C. in 100 mM potassium phosphate buffer, pH 7.4, 3.3 mM MgCl2. The reaction was initiated by addition of 80 μL of the NADPH regenerating system to 320 μL of each incubation mixture per time point. The final incubation condition was composed of 0.5 mg/mL microsomal protein, 1 μM test article/positive control, 1.3 mM NADP, 3.3 mM glucose-6-phosphate, and 0.6 U/mL glucose-6-phosphate dehydrogenase. The 0-minute samples were prepared by addition of an 80 μL aliquot of each incubation mixture to 400 μL quench reagent to precipitate proteins. And then a 20 μL aliquot of the NADPH regenerating system was added. At 10, 30, and 90 minutes, the reaction will be stopped by the addition of cold acetonitrile solution containing tolbutamide and propanolol served as internal standard. The samples taken at all time points were centrifuged at 4000×g for 15 minutes. 80 μL of supernatant are taken into 96-well assay plates pre-added with 160 μL ultrapure water, and then analyzed by LC/MS/MS (Shimadzu LC30AD & API4000/API5000)).
Concentrations of test articles, control compounds in the samples were determined by using LC/MS/MS) method. Plotting of the chromatograms and peak area integrations are carried out by Analyst (AB Sciex).
In the determination of the in vitro elimination constant, ke, of the control compounds, the analyte/internal standard peak area ratios will be converted to percentage remaining (% Remaining) with the following equation:
The CLint of microsomes was calculated using the formula: CLint (mic)=0.693/T1/2/mg microsome protein per mL.
In general terms: Microsomes from liver hold many membrane-bound enzymes, among them those of drug oxidation.

The nature of data set [7]: Rat pharmacokinetic study. The conditions noted are these: for half-life: read-out: t½ (converted); for Pharmacokinetic profile in rats: conclusion in words. It is filed as in vivo, Sprague-Dawley rats. On the procedure: Pharmacokinetic profile of test articles were evaluated in fasted Sprague-Dawley rats. Typically, Rats were dosed with 1 mg/kg and 2 mg/kg by intravenous injection and oral gavage, respectively. After dosing, blood samples were collected at each time point. For IV injection group, time points were set at 5, 15, 30 min, and then 1, 2, 4, 8 and 24 hours after dosing. For oral gavage group, time points were set at 15, 30 min, and then 1, 2, 4, 8, and 24 hours. Blood was collected into appropriately labeled tubes containing K2EDTA as the anticoagulant. Plasma was obtained within 1 hours of blood collection by centrifugation at 8000×g and 4° C. for 6 minutes, and then stored at −20° C. until analyzed by LC/MS/MS for quantification.
PK parameter values, including, but not necessarily limited to, the maximum plasma concentrations (Cmax), the time to reach the maximum concentrations (Tmax), and the area under the plasma concentration vs. time curve (AUC) from time zero to 24-hour (AUC0-24h) were determined using WinNonlin program.

Where [8] appears, read: Sprague-Dawley, plasma, 1 mg/kg, Rat iv @1 mpk, 0.2 mg/mL in 5% DMSO + 15% Solutol HS 15 + 80% Saline.
Where [9] appears, read: Sprague-Dawley, plasma, 2 mg/kg, Rat po @2 mpk, 0.2 mg/mL in 5% DMSO + 15% Solutol HS 15 + 80% Saline.
Setting [10] is: Sprague-Dawley, plasma, 1 mg/kg, Rat iv @1 mpk, 0.2 mg/mL in 4% DMSO + 15% Solutol HS 15 + 81% Saline.

The structures appear in SMILES notation. Read-outs that look alike come from different tables or passages of the source.

T1 sequence (P23458 whole entry): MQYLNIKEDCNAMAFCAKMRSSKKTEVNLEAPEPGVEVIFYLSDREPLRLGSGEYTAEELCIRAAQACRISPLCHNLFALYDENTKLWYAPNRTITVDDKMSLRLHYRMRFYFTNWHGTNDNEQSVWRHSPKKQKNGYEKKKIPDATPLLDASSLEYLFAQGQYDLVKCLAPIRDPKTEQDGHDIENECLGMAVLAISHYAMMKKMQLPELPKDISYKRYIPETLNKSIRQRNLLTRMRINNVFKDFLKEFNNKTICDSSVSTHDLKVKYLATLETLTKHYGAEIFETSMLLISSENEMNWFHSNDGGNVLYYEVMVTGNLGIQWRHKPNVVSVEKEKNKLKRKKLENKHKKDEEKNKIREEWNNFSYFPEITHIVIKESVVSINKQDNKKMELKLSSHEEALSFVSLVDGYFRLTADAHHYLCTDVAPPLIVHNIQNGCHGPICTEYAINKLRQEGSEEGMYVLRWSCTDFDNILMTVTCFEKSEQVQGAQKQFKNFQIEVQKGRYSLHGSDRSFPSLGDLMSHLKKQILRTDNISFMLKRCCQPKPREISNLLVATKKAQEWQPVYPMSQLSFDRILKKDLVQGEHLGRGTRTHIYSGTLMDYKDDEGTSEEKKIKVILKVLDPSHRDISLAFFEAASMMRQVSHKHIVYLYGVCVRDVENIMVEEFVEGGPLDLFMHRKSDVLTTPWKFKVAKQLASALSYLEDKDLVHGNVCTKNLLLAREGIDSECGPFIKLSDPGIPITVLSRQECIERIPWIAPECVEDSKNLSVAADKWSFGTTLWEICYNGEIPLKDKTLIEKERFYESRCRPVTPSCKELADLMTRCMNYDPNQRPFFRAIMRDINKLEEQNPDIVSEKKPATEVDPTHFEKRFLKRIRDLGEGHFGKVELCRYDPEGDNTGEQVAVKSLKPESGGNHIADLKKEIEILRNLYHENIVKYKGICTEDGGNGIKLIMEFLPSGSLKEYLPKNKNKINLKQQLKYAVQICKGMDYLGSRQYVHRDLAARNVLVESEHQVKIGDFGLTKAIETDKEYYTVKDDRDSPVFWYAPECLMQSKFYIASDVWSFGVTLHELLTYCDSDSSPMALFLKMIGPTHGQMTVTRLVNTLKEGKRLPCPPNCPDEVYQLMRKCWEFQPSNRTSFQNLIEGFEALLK
T2 sequence (O60674 whole entry): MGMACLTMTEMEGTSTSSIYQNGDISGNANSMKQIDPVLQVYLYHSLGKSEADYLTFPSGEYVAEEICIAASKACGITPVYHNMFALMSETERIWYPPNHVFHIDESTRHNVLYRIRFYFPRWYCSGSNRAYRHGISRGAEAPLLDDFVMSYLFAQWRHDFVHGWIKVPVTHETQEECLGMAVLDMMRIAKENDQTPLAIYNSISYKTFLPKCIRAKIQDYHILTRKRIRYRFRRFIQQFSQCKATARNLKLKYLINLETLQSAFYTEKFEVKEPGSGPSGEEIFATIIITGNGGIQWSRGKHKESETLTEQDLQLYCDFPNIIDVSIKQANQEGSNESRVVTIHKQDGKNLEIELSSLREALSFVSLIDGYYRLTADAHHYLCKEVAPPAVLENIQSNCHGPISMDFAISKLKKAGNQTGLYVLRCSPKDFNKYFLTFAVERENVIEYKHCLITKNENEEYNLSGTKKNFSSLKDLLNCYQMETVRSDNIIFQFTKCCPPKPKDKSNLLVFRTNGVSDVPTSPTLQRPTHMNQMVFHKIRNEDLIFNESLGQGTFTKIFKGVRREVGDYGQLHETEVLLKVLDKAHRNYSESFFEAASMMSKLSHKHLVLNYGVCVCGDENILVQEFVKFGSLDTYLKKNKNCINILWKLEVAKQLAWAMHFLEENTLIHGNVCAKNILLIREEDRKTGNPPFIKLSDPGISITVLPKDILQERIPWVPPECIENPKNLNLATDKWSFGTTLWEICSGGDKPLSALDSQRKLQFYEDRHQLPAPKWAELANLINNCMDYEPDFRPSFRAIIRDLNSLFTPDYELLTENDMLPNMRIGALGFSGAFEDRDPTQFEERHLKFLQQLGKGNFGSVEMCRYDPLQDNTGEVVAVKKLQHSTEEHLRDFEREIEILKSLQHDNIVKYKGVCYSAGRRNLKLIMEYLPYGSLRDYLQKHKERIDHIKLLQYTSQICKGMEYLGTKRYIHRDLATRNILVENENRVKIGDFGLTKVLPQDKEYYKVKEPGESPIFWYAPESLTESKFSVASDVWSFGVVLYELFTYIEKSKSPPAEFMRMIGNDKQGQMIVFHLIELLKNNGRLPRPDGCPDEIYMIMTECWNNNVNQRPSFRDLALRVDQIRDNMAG
T3 sequence (P29597 whole entry): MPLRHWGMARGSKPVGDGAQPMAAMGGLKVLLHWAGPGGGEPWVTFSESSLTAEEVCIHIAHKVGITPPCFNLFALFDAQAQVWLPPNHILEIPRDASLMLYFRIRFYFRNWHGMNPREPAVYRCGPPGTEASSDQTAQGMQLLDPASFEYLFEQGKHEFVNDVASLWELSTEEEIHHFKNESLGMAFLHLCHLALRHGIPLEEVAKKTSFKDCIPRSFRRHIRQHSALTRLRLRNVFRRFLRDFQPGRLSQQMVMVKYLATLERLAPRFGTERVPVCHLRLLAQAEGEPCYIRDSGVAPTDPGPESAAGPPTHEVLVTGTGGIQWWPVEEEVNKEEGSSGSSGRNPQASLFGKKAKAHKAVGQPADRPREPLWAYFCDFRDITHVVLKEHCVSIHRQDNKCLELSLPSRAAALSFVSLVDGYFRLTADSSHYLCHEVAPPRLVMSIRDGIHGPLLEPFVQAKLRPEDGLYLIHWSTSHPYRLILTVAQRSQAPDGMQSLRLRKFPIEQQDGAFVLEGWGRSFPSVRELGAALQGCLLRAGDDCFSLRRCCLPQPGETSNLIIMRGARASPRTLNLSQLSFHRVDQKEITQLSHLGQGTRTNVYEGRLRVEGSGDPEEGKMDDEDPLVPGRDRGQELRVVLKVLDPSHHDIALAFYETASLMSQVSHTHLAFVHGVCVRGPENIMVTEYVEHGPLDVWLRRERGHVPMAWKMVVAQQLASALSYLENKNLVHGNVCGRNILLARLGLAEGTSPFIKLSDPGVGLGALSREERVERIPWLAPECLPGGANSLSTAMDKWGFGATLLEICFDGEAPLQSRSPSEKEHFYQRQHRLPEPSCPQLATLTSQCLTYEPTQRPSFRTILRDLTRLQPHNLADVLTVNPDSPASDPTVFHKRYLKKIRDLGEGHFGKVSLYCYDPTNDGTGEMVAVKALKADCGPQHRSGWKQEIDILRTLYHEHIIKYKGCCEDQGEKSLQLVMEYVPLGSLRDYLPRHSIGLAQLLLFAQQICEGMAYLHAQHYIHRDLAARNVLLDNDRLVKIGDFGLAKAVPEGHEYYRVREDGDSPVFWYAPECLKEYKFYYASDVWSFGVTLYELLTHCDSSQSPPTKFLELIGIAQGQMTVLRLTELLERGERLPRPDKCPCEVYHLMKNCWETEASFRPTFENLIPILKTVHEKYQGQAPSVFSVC

As for `O=S(=O)(CCC(F)(F)F)NC12CC(n3cnc4cnc5[nH]ccc5c43)(C1)C2` [Example 32, 3,3,3-Trifluoro-N-(3-(imidazo[4,5-d]pyrrolo[2,3-b]pyridin-1(6H)-yl)bicyclo[1.1.1]pentan-1-yl)propane-1-sulfonamide], the figures for the half-maximal inhibitory concentration (IC50) in data set [1], in data set [2] and in data set [3] were 6.7 nM, 155 nM and 151 nM, respectively. Also, the 50% growth inhibitory concentration (GI50) in data set [4] is 33.6 nM; in data set [5], 122 nM. For the same molecule, the microsomal CLint at 1 μM in data set [6] was 2.72 µL/min/mg. In addition, the half-life at 1 μM in data set [6] was 8.5 h.
Take `O=S(=O)(NC12CC(n3cnc4cnc5[nH]ccc5c43)(C1)C2)N1CC(F)C1` [Example 22, 3-Fluoro-N-(3-(imidazo[4,5-d]pyrrolo[2,3-b]pyridin-1(6H)-yl)bicyclo[1.1.1]pentan-1-yl)azetidine-1-sulfonamide]: the IC50 in data set [1] came out at 6.1 nM; in data set [2] it was 45.5 nM; in data set [3], 28.4 nM. Besides, the 50% growth inhibitory concentration (GI50) worked out at 54 nM in data set [4] and 163 nM in data set [5]. The microsomal CLint at 1 μM in data set [6] stood at 1.24 µL/min/mg. For the same molecule, the half-life at 1 μM in data set [6] was 18.6 h.
For `CCCS(=O)(=O)NC12CC(n3cnc4cnc5[nH]ccc5c43)(C1)C2` [Example 1, N-(3-(Imidazo[4,5-d]pyrrolo[2,3-b]pyridin-1(6H)-yl)bicyclo[1.1.1]pentan-1-yl)propane-1-sulfonamide], in data set [1], the IC50 is 5.95 nM. This molecule returned a half-inhibitory concentration (IC50) in data set [2] of 141 nM. The IC50 in data set [3] came out at 119 nM. Halving of growth in data set [4] (GI50) required 19.6 nM. In addition, halving of growth in data set [5] (GI50) required 354 nM. Further, in data set [6], the microsomal CLint at 1 μM worked out at 4.1 µL/min/mg and the half-life at 1 μM amounted to 5.69 h. Besides, the F in data set [7] (Rat po @2 mpk, 0.2 mg/mL in 5% DMSO + 15% Solutol HS 15 + 80% Saline) was found to be 21.90%. In data set [7] (setting [8]), the area under the curve (AUC) came out at 458 ng·h/mL, the Vd was determined as 1.42 L/kg, the clearance was determined as 36.2 mL/min/kg and the half-life was 0.46 h. In addition, in data set [7] (setting [9]), the AUC was 190 ng·h/mL, the Cmax is 92.8 ng/mL and the half-life is 2.06 h. Moreover, in data set [7], the “Pharmacokinetic profile in rats” value is recorded as “good Pharmacokinetic profile”.
Take `O=C(NC12CC(n3cnc4cnc5[nH]ccc5c43)(C1)C2)C1CC(F)(F)C1` [Example 17, 3,3-Difluoro-N-(3-(imidazo[4,5-d]pyrrolo[2,3-b]pyridin-1(6H)-yl)bicyclo[1.1.1]pentan-1-yl)cyclobutanecarboxamide]: the concentration for half-maximal inhibition (IC50) in data set [1] stood at 8.4 nM; in data set [2], 89.5 nM. Moreover, the values for the GI50 in data set [4] and in data set [5] were 48.2 nM and 86.7 nM, respectively. Moreover, the microsomal CLint at 1 μM in data set [6] is 1.04 µL/min/mg. Moreover, in data set [6], the half-life at 1 μM turned out to be 22.3 h.
For `N#CCCC(=O)NC12CC(n3cnc4cnc5[nH]ccc5c43)(C1)C2` [Example 14, 3-Cyano-N-(3-(imidazo[4,5-d]pyrrolo[2,3-b]pyridin-1(6H)-yl)bicyclo[1.1.1]pentan-1-yl)propanamide], in data set [1], the IC50 is 8.06 nM. The concentration for half-maximal inhibition (IC50) in data set [2] worked out at 73.1 nM. Further, in data set [6], the microsomal CLint at 1 μM stood at 0.77 µL/min/mg and the half-life at 1 μM amounted to 29.8 h.
Regarding `N#CC1CN(S(=O)(=O)NC23CC(n4cnc5cnc6[nH]ccc6c54)(C2)C3)C1` [Example 4, 3-Cyano-N-(3-(imidazo[4,5-d]pyrrolo[2,3-b]pyridin-1(6H)-yl)bicyclo[1.1.1]pentan-1-yl)azetidine-1-sulfonamide], in data set [1], the concentration for half-maximal inhibition (IC50) amounted to 3.2 nM. The molecule further yielded a half-maximal inhibitory concentration (IC50) in data set [2] of 83.2 nM. This molecule also displayed an IC50 in data set [3] of 111 nM. Further, in data set [6], the microsomal CLint at 1 μM was 2.11 µL/min/mg and the half-life at 1 μM worked out at 10.9 h. Besides, in data set [7] (setting [10]), the exposure (AUC) was 402 ng·h/mL, the distribution volume (Vd) was determined as 0.93 L/kg, the clearance is 41.9 mL/min/kg and the half-life is 0.26 h. Moreover, in data set [7], the “Pharmacokinetic profile in rats” value is “good Pharmacokinetic profile”.
With `O=C(CC1CC1)NC12CC(n3cnc4cnc5[nH]ccc5c43)(C1)C2` [Example 13, 2-Cyclopropyl-N-(3-(imidazo[4,5-d]pyrrolo[2,3-b]pyridin-1(6H)-yl)bicyclo[1.1.1]pentan-1-yl)acetamide], the IC50 amounted to 14.8 nM in data set [1], 122 nM in data set [2] and 400 nM in data set [3]. For the same molecule, the results for the concentration for 50% growth inhibition (GI50) in data set [4] and in data set [5] were 50.1 nM and 108 nM, respectively. Besides, the microsomal CLint at 1 μM in data set [6] amounted to 1.01 µL/min/mg. The half-life at 1 μM in data set [6] was 23 h.

What is called IC50 is the concentration that inhibits the measured activity by half. As usually defined, the GI50 is the concentration at which growth is held to half of that of the control. The low end stands for greater sensitivity of the cells, the high end for lower sensitivity of the cells. What is called AUC is concentration integrated over time. Usually Vd stands for a proportionality between amount in the body and measured concentration, not a real space. Broadly, the clearance is the volume of plasma or blood freed of the substance per unit of time. A word on the Cmax: it is the peak of the concentration-time curve.

Values taken from patent publication US11851431B2, “Tricyclic Janus kinase 1 inhibitors, and compositions and methods thereof” (LYNK PHARMACEUTICALS CO. LTD., priority 2018, dated 2023).
